Source: paper PMC9101642 (Molecules, 2022)
Marks after values point to notes of the source that are not given here.

Legend:
[1] = test system: MNU-induced breast cancer tissue; experiment: Histopathology of breast sections; format: in vivo, Wistar rats
Outline: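 Rats with MNU-induced breast cancer were given selected leads at two concentrations. Breast tissue was examined histopathologically for lobuloalveolar units and epithelial changes, with slides photographed at 200x.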

[2] = target: T1, ERα (Homo sapiens, UniProt P03372); experiment: ERα down-regulation immunofluorescence assay in MCF-7; format: cell-based; settings: ERα downregulation measured in MCF-7; read-out: MCF-7 DR (IC50 nM)
T1 sequence (P03372 1-595): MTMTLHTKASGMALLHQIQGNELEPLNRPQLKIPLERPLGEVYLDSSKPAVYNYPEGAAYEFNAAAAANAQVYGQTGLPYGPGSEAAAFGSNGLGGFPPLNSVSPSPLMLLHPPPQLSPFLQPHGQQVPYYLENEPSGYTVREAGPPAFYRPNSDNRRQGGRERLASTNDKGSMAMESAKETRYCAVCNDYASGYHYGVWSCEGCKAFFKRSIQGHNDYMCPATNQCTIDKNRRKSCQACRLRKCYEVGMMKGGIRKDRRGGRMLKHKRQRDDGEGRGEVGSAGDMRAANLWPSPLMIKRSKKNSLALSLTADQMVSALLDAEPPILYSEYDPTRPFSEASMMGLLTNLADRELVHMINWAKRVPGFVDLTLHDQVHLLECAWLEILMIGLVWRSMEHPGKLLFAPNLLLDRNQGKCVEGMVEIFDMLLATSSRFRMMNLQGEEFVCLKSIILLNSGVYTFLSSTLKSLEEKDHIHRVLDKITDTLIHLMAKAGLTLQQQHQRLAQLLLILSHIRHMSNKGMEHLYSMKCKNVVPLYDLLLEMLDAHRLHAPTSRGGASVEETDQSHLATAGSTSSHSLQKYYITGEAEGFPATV

[3] = MTT antiproliferative assay (neutral control); settings: human
[4] = target: ERβ (Homo sapiens, UniProt Q92731); experiment: Fluorescence polarization competition assay: antagonistic potency and relative binding affinity; settings: for Ki: calculated antagonistic (inhibitory) constant, read-out: Ka ERβ; for IC50: concentration that antagonizes 50% of ERβ signaling activity, read-out: ERβ (IC50 nM); for logRBA ERβ: log of % relative binding affinity, estradiol = 100%
[5] = Lipophilicity by shake-flask method; settings: pH 7.4
[6] = Serum biochemical markers after treatment of MNU-induced rats; format: in vivo, Wistar rats; set-up: TBC: unit not given here; settings: for ALP (A/L) / ALT (A/L) / AST (U/L) / γ-GT (U/L): serum; for TBC: total bilirubin content
Outline: (§1)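 Mammary tumours induced in rats by MNU 50 mg/kg i.p. at day 50; after two weeks, compounds given orally at 5 or 50 mg/kg once daily for six weeks. Serum AST, ALT (340 nm), ALP (405 nm) and bilirubin measured; liver homogenate GSH, CAT, MDA by colorimetry; plasma binding by ultrafiltration at 37°C with BCA protein read-out.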

[7] = test system: MCF-7 cell lines; experiment: MTT antiproliferative assay; format: cell-based, human; settings: for IC50: Homo sapiens, MCF7, growth inhibition, 48 h, read-out: MCF-7 (IC50 nM); for MCF-7 antiproliferative potency, fold higher than Ral: ratio of IC50 values; for SI: selectivity index [IC50(MDA-MB-231)]/[IC50(MCF-7)]
[8] = test system: MCF-7 cells; experiment: Cell cycle distribution by flow cytometry; format: cell-based, human; settings: 24 h
[9] = test system: MDA-MB-231 cell lines; experiment: MTT antiproliferative assay; format: cell-based, human; settings: Homo sapiens, MDA-MB-231; growth inhibition, 48 h; read-out: MDA-MB-231 (IC50 nM)
[10] = Pharmacokinetics study, oral bioavailability; settings: rat
[11] = Liver oxidative stress markers after treatment of MNU-induced rats; format: in vivo, Wistar rats; settings: liver; for CAT: catalase activity; for GSH: reduced glutathione; for SOD (U/mg): superoxide dismutase activity; for TP: total protein content
Outline: as §1

Sequence of ERβ (Q92731 whole entry): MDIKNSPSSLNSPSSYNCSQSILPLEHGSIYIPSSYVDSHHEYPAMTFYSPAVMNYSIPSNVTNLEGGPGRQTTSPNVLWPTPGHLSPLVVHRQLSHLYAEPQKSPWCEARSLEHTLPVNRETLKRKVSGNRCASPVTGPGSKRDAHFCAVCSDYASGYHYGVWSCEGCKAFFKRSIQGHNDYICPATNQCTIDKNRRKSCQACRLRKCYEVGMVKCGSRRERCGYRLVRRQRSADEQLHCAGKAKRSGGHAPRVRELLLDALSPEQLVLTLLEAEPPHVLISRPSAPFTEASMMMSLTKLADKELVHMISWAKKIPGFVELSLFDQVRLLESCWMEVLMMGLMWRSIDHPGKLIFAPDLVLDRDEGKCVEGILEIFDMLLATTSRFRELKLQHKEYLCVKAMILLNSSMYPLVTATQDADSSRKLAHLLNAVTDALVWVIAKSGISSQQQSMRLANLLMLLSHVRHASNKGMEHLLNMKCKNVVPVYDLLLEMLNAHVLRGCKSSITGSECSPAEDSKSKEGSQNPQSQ

SMILES | breast section histopathology ([1]; 5 mg/kg of bwt) | IC50 [2] | IC50 at 48 h [3] | Ki [4] | IC50 [4] | logRBA ERβ [4] | logD at 30 min [5] | ALP (A/L) ([6]; dose 5 mg/kg) | ALT (A/L) ([6]; dose 5 mg/kg) | AST (U/L) ([6]; dose 5 mg/kg) | γ-GT (U/L) ([6]; dose 5 mg/kg) | ALP (A/L) ([6]; dose 50 mg/kg) | ALT (A/L) ([6]; dose 50 mg/kg) | AST (U/L) ([6]; dose 50 mg/kg) | γ-GT (U/L) ([6]; dose 50 mg/kg) | TBC ([6]; dose 5 mg/kg) | TBC ([6]; dose 50 mg/kg) | IC50 [7] | Cell Cycle (%) G0/G1 ([8]; 0.1 nM) | Cell Cycle (%) G2/M ([8]; 0.1 nM) | other results
CC(=O)c1cc(C(=O)O[C@@H]2/C=C/C(=O)O[C@@H](O)CCC/C=C/[C@@H]3C[C@H](O)C[C@H]32)ccc1OCCN1CCCC(O)C1=O (stereo partly drawn) [Compound 3DPQ-12, (1R,2E,6R,10E,11aS,13S,14aR)-6,13-dihydroxy-4-oxo-4,6,7,8,9,11a,12,13,14,14a-decahydro-1H-cyclopenta[f][1]oxacyclotridecin-1-yl 3-acetyl-4-(2-(3-hydroxy-2-oxopiperidin-1-yl)ethoxy)benzoate] | lobuloalveolar unit (LaU) and cuboidal epithelial cells (CE) | > 100 nM | > 100 nM | 50.3 nM | 89.45 ± 0.31 nM | 0.00 ^†,‡,§ | 2.06 | 132.67±0.43 A/L | 50.99±0.84 A/L | 51.54±0.74 U/L | 13.53 U/L | 121.33±0.23 A/L | 59.65±0.84 A/L | 52.69±0.95 U/L | 15.54±0.83 U/L | 19.28 | 23.43 | 0.56 ± 0.11 nM | 77.83 ± 0.92 *^,†,‡,§ % | 5.21 ± 2.54 *^,†,‡,§ % | breast section histopathology ([1]; 50 mg/kg of bwt): lobuloalveolar unit (LaU) and cuboidal epithelial cells (CE); Cell Cycle (%) S ([8]; 0.1 nM): 16.96 ± 1.23 *^,†,‡,§ %; Cell Cycle (%) G0/G1 ([8]; 1 nM): 80.29 ± 1.24 *^,†,‡,§ %; Cell Cycle (%) G2/M ([8]; 1 nM): 2.05 ± 1.43 *^,†,‡,§ %; Cell Cycle (%) S ([8]; 1 nM): 17.67 ± 1.32 *^,†,‡,§ %; IC50 [9]: 82.84 ± 0.61 nM; BIO ([10]; oral 5 mg/kg): 93 ^‡; BIO ([10]; oral 50 mg/kg): 96; CAT ([11]; dose 5 mg/kg): 14.55±0.51; CAT ([11]; dose 50 mg/kg): 19.46±0.75; TBARS ([11]; dose 5 mg/kg): 0.92 nmol/mg; TBARS ([11]; dose 50 mg/kg): 1.05 nmol/mg; GSH ([11]; dose 5 mg/kg): 8.96 mg/g; GSH ([11]; dose 50 mg/kg): 9.02 mg/g; SOD (U/mg) ([11]; dose 5 mg/kg): 5.43±0.25 U/mg; SOD (U/mg) ([11]; dose 50 mg/kg): 13.32±0.43 U/mg; TP ([11]; dose 5 mg/kg): 336.12 g/L; TP ([11]; dose 50 mg/kg): 389.35 g/L
CNCCOc1ccc(C(=O)O[C@@H]2/C=C/C(=O)O[C@@H](O)CCC/C=C/[C@@H]3C[C@H](O)C[C@H]32)cc1C(C)=O [Compound 3DPQ-1, (1R,2E,6R,10E,11aS,13S,14aR)-6,13-dihydroxy-4-oxo-4,6,7,8,9,11a,12,13,14,14a-decahydro-1H-cyclopenta[f][1]oxacyclotridecin-1-yl 3-acetyl-4-(2-(methylamino)ethoxy)benzoate] | lobuloalveolar unit (LaU) and cuboidal epithelial cells (CE) | > 100 nM | > 100 nM | 41.8 nM | 74.33 ± 0.46 nM | 0.08 ^†,‡,§ | 1.94 | 104.53±0.75 A/L | 51.63±0.32 A/L | 44.78±0.61 U/L | 13.54±1.74 U/L | 107.52±0.6 A/L | 53.43±1.34 A/L | 49.54±0.65 U/L | 16.43±0.76 U/L | 15.43±0.32 | 19.41 | 0.76 ± 0.24 nM | 72.62 ± 2.47 *^,†,‡,§ % | 17.40 ± 3.63 *^,†,‡,§ % | breast section histopathology ([1]; 50 mg/kg of bwt): lobuloalveolar unit (LaU) and cuboidal epithelial cells (CE); MCF-7 antiproliferative potency, fold higher than Ral [7]: 1.17 fold; SI [7]: 95.31 ^‡,§; Cell Cycle (%) S ([8]; 0.1 nM): 9.98 ± 1.65 *^,†,‡,§ %; Cell Cycle (%) G0/G1 ([8]; 1 nM): 75.08 ± 2.13 *^,†,‡,§ %; Cell Cycle (%) G2/M ([8]; 1 nM): 14.24 ± 2.54 *^,†,‡,§ %; Cell Cycle (%) S ([8]; 1 nM): 10.69 ± 1.42 *^,†,‡,§ %; IC50 [9]: 72.44 ± 0.32 nM; BIO ([10]; oral 5 mg/kg): 91; BIO ([10]; oral 50 mg/kg): 94; CAT ([11]; dose 5 mg/kg): 16.21±0.77; CAT ([11]; dose 50 mg/kg): 17.35±0.56; TBARS ([11]; dose 5 mg/kg): 0.96 nmol/mg; TBARS ([11]; dose 50 mg/kg): 0.65 nmol/mg; GSH ([11]; dose 50 mg/kg): 9.35 ± 0.45 mg/g; SOD (U/mg) ([11]; dose 5 mg/kg): 7.65±0.63 U/mg; SOD (U/mg) ([11]; dose 50 mg/kg): 8.83±0.51 U/mg; TP ([11]; dose 50 mg/kg): 37.21 g/L
CC(=O)c1cc(C(=O)O[C@@H]2/C=C/C(=O)O[C@@H](O)CCC/C=C/[C@@H]3C[C@H](O)C[C@H]32)ccc1OCCN(C)C [Compound 3DPQ-2, (1R,2E,6R,10E,11aS,13S,14aR)-6,13-dihydroxy-4-oxo-4,6,7,8,9,11a,12,13,14,14a-decahydro-1H-cyclopenta[f][1]oxacyclotridecin-1-yl 3-acetyl-4-(2-(dimethylamino)ethoxy)benzoate] | lobuloalveolar unit (LaU) and cuboidal epithelial cells (CE) | > 100 nM | > 100 nM | 43.4 nM | 77.24 ± 0.42 nM | 0.06 ^†,‡,§ | 1.99 | 98.53±0.14 A/L | 46.89±0.74 A/L | 56.43±0.21 U/L | 16.52±0.42 U/L | 119.47±0.13 A/L | 49.47±0.64 A/L | 59.54±0.32 U/L | 17.35±0.56 U/L | 16.43 | 17.72 | 0.73 ± 0.42 nM | 73.64 ± 5.32 *^,†,‡,§ % | 14.48 ± 2.54 *^,†,‡,§ % | MCF-7 antiproliferative potency, fold higher than Ral [7]: 1.21 fold; SI [7]: 99.20 ^‡,§; Cell Cycle (%) S ([8]; 0.1 nM): 11.88 ± 0.87 *^,†,‡,§ %; Cell Cycle (%) G0/G1 ([8]; 1 nM): 76.10 ± 1.43 *^,†,‡,§ %; Cell Cycle (%) G2/M ([8]; 1 nM): 11.32 ± 3.25 *^,†,‡,§ %; Cell Cycle (%) S ([8]; 1 nM): 12.59 ± 1.57 *^,†,‡,§ %; IC50 [9]: 72.42 ± 0.47 nM; BIO ([10]; oral 5 mg/kg): 92; BIO ([10]; oral 50 mg/kg): 94; CAT ([11]; dose 5 mg/kg): 15.54±0.51; CAT ([11]; dose 50 mg/kg): 17.31±0.63; TBARS ([11]; dose 5 mg/kg): 0.56 nmol/mg; TBARS ([11]; dose 50 mg/kg): 0.75 nmol/mg; GSH ([11]; dose 5 mg/kg): 9.96 mg/g; GSH ([11]; dose 50 mg/kg): 10.35 mg/g; SOD (U/mg) ([11]; dose 5 mg/kg): 9.63±0.56 U/mg; SOD (U/mg) ([11]; dose 50 mg/kg): 12.3±0.36 U/mg; TP ([11]; dose 50 mg/kg): 41.54 g/L
